Measured values published in patent publication US20060020042A1, “Memantine for the treatment of mild and mild to moderate Alzheimer's disease” (Forest Laboratories, Inc., priority 2004, published 2006).

Legend:
[1] = test system: outpatients with mild-to-moderate Alzheimer's disease; experiment: ADCS-ADL in randomized, double-blind, placebo-controlled study; assay type: in vivo, human; settings: Week 24, ITT, 20 mg/day
Procedure: In the study of the present invention, there were approximately 400 patients enrolled across 42 centers. Evaluation of primary efficacy was achieved by Alzheimer's Disease Assessment Scale-cognitive subscale (ADAS-cog) and the Clinician's Interview-Based Impression of Change including caregiver information (CIBIC-plus). Secondary efficacy was determined using Alzheimer's disease Cooperative Study-Activities of Daily Living (ADCS-ADL) and Neuropsychiatric Inventory (NPI) criteria. The ADCS-ADL inventory consists of 23 questions used to measure the functional capabilities of patients with dementia. These questions are selected from a larger set of 49 questions in the original ADL scale. A more common selection is of 19 questions from the same 49 question group. Each ADL item comprises a series of hierarchical sub-questions, ranging from the highest level of independent performance of each ADL to complete loss. The ADSC-ADL Inventory total score ranges from 0 (lower functioning status) to 78 (higher functioning status). A higher score indicates a better functioning status. […] Results were evaluated over seven clinical visits; at initial screening, baseline, and the end of weeks 4, 8, 12, 18 and 24. […] Descriptive statistics were calculated by visit. […]

[2] = test system: mild-to-moderate AD subjects; experiment: Snodgrass picture naming activation task during PET; assay type: in vivo, human
Procedure: Snodgrass Picture Naming Task. […] In the present invention, all patients who were subjected to PET scanning were evaluated during imaging using the Snodgrass picture naming activation task, The use of a task during the FDG uptake was used to image increases in the hippocampus and temporal lobe. This Snodgrass Picture Naming activation task was sensitive to object naming, which is impaired in mild to moderate AD. The Snodgrass picture naming activation task and performance analysis was based, in part, on the speed of identification and articulation of the name that corresponds to a set of 260 pictures (Snodgrass and Vanderwart, J. Experimental Psychology: Human Learning and Memory 1980; 6(2): 174-215). The pictures are black-and-white line drawings executed according to a set of rules that provide consistency of pictorial representation. The pictures were standardized on four variables of central relevance to memory and cognitive processing: […]

CC12CC3CC(C)(C1)CC(N)(C3)C2 [Memantine, 1-amino-3,5-dimethyladamantane]
ADCS-ADL Difference (memantine minus placebo, LS mean) ([1]; LOCF analysis, p=0.890): 0.1
ADCS-ADL Difference (memantine minus placebo, LS mean) ([1]; OC analysis, p=0.975): 0.0
difference in Snodgrass performance between the two treatment groups ([2]; memantine vs placebo): no significant difference
Snodgrass picture naming activation task performance ([2]; memantine-treated subjects during PET): better than chance
